System: T1, UGT72B27
T1 construct: recombinant GST fusion (pGEX-4T-1) from E. coli BL21(DE3) pLysS, purified on GST resin
Test: UDP-Glo luminescent UDP release assay, 384-well
Format: biochemical, Vitis vinifera
Conditions: 100 µM UDP-glucose, 50 mM Tris/HCl pH 7.5, 30 °C, 10 min, heat stop; poorly soluble, high DMSO; read-out: b. UDP-Glo^TM Assay / KM
Text: UDP-Glo luminescent UDP release assay, 384-well on UGT72B27

Km [µM] | SMILES
21 ± 5 | Oc1ccc(/C=C/c2cc(O)cc(O)c2)cc1 [trans-Resveratrol]

Same assay, conditions: 100 µM UDP-glucose, 50 mM Tris/HCl pH 7.5, 30 °C, 10 min, heat stop; read-out: b. UDP-Glo^TM Assay / KM

Km [µM] | SMILES
23 ± 3 | COc1cccc(OC)c1O [DMP, 2,6-Dimethoxyphenol]
453 ± 35 | CC1=C(O)C(=O)C(C)O1 (centres unmarked) [Furaneol]
23 ± 1 | COc1ccccc1O [Guaiacol, 2-Methoxyphenol]
173 ± 28 | COc1cc(C)cc(OC)c1O [MDMP, 4-Methyl-2,6-dimethoxyphenol]
41 ± 9 | COc1cc(C)ccc1O [MMP, 2-Methoxy-4-methylphenol]
35 ± 4 | Oc1cc(O)cc(O)c1 [Phloroglucinol]
28 ± 7 | Cc1ccc(C(C)C)c(O)c1 [Thymol]

SMILES | Km [µM]
Oc1ccccc1 [Phenol] | 153 ± 24
Cc1cccc(O)c1 [m-Cresol] | 14 ± 3
Cc1ccccc1O [o-Cresol] | 40 ± 5
